Assay results: PMC5623949, “Exploiting the 2-Amino-1,3,4-thiadiazole Scaffold To Inhibit Trypanosoma brucei Pteridine Reductase in Support of Early-Stage Drug Discovery” (ACS Omega, 2017)

Assays:
786-O = assay: cells; set-up: mitochondrial toxicity in 786-O renal carcinoma cells; settings: Homo sapiens, 786-0; read-out: mitochondrial toxicity [IC50 uM]
[1] = test system: THP-1-derived macrophages; assay: Cytotoxicity against THP-1 macrophages (MTT); type: cell-based, human; settings: 100 μM
Method: The effect of compounds 3k, 4h, 4m, and 4o on THP-1-derived macrophages was assessed by the colorimetric MTT assay [3-(4,5-dimethylthiazol-2-yl)-2,5-diphenyl tetrazolium bromide]. Briefly, 1 × 10^6 THP-1 cells were differentiated into macrophages by addition of 20 ng/mL of phorbol-myristate 13-acetate (PMA, Sigma-Aldrich) for 18 h, followed by replacement with a fresh medium and further incubation for 24 h. The cells were incubated with compounds ranging from 100 to 3 μM after dilution in the RPMI complete medium containing a maximum amount of 1% DMSO. After incubation for 72 h at 37 °C and 5% CO2, the medium was removed and 0.5 mg/mL MTT solution was added. The plates were incubated for 4 additional hours to allow viable cells to convert MTT into a purple formazan product. Solubilization of formazan crystals was achieved by addition of 2-propanol, and absorbance was read at 570 nm using a Synergy 2 multi-mode reader (BioTek).

Compound | IC50 (786-O) [µM] | toxicity in THP-1 cells alone vs combination with equimolar MTX [1]
Nc1nnc(NCCc2cccs2)s1 [4o, N2G(2G(thiophenG2Gyl)ethyl)G1,3,4GthiadiazoleG2,5Gdiamine] | 17.8 | –
Nc1nnc(NCc2ccc(-c3ccccc3)cc2)s1 [4m] | > 100 | no increase in toxicity
